Measurements: patent publication US20230346717A1, “IDENTIFICATION AND USE OF COMPOUNDS IN THE TREATMENT OR PREVENTION OF SEVERE ACUTE RESPIRATORY SYNDROME CORONAVIRUS 2” (priority 2020, published 2023)
Where a name gives a salt, the structure may show the parent alone.

How the values were obtained:
Format in all cases: cell-based, human
CTSB = assay: Gene expression assay, lysosome gene CTSB; details: probe 213274_s_at; ARPE-19/HPV-16, 10 μM, 24 h
Text: (§1) A drug screen was used to test agents having the potential to treat or prevent SARS-CoV-2 infection. The retinal pigment epithelia cell line, ARPE-19/HPV-16, was chosen to establish a database of drug profiles because of its non-cancerous, human origin, with a normal karyotype. ARPE-19/HPV-16 can be easily grown as monolayer in 96-well plates and expresses a variety of well known, neuronal, cell surface receptors that include the dopamine receptor D2, the serotonin receptors 1A, 2A, and 2C, the muscarinic receptor M3, and the histamine receptor H1.
(§2) Cell lines were propagated according to supplier's specifications (ATCC Manassas, VA). Compounds were obtained from Sigma (St. Louis, MO) or Vanda Pharmaceuticals (Washington, DC). Cells were aliquoted on 96-well plates (˜2×10^5 cells/well) and incubated for 24 hours prior to providing fresh media with a drug, or the drug vehicle (water, dimethyl sulfoxide, ethanol, methanol, or phosphate-buffered saline solution). Drugs were diluted 1000-fold in buffered Advanced D-MEM/F-12 culture medium (Invitrogen, Carlsbad, CA) containing nonessential amino acids and 110 mg/L sodium pyruvate. […]
(§3) Cells were harvested 24 hours after treatment and RNA was extracted using the RNeasy 96 protocol (Qiagen, Valencia, CA). […] A total of 708 microarrays were analyzed including 74 for 18 antipsychotics, 499 for 448 other compounds, and 135 for vehicle controls. […]

ceroid-lipofuscinosis = assay: Gene expression assay, lysosome gene ceroid-lipofuscinosis; details: ARPE-19/HPV-16, 10 μM, 24 h
Text: as §1
Cell lines were propagated according to supplier's specifications (ATCC Manassas, VA). Compounds were obtained from Sigma (St. Louis, MO) or Vanda Pharmaceuticals (Washington, DC). Cells were aliquoted on 96-well plates (˜2×10^5 cells/well) and incubated for 24 hours prior to providing fresh media with a drug, or the drug vehicle (water, dimethyl sulfoxide, ethanol, methanol, or phosphate-buffered saline solution). Drugs were diluted 1000-fold in buffered Advanced D-MEM/F-12 culture medium (Invitrogen, Carlsbad, CA) containing nonessential amino acids and 110 mg/L sodium pyruvate. In these conditions, no significant changes of pH were expected, which was confirmed by the monitoring of the pH indicator present in the medium.
A final 10 μM drug concentration was chosen because it is believed to fit in the range of physiological relevance. Microscopic inspection of each well was conducted at the end of the treatment to discard any samples where cells had morphological changes consistent with apoptosis. It was also verified that the drug had not precipitated in the culture medium.
Cells were harvested 24 hours after treatment and RNA was extracted using the RNeasy 96 protocol (Qiagen, Valencia, CA). Gene expression for 22,238 probe sets of 12,490 genes was generated with U133A2.0 microarrays following the manufacturer's instructions (Affymetrix, Santa Clara, CA). Drugs were profiled in duplicate or triplicate, with multiple vehicle controls on each plate. A total of 708 microarrays were analyzed including 74 for 18 antipsychotics, 499 for 448 other compounds, and 135 for vehicle controls.
The raw scan data were first converted to average difference values using MAS 5.0 (Affymetrix). The average difference values of both treatment and control data were set to a minimum threshold of 50 if below 50. For each treatment instance, all probe sets were then ranked based on their amplitude, or level of expression relative to the vehicle control (or average of controls when more than one was used). Amplitude was defined as the ratio of expression (t−v)/[(t+v)/2] where t corresponds to treatment instance and v to vehicle instance. […]

CD164 = assay: Gene expression assay, lysosome gene CD164; details: probe 208654_s_at; ARPE-19/HPV-16, 10 μM, 24 h
Text: as §1, §2, §3

PSAP = assay: Gene expression assay, lysosome gene PSAP; details: probe 200866_s_at; ARPE-19/HPV-16, 10 μM, 24 h
Text: as §1, §2, §3

CTSK = assay: Gene expression assay, lysosome gene CTSK; details: probe 202450_s_at; ARPE-19/HPV-16, 10 μM, 24 h
Text: as §1, §2, §3

GJA1 = assay: Gene expression assay, lysosome gene GJA1; details: probe 201667_at; ARPE-19/HPV-16, 10 μM, 24 h
Text: as §1, §2, §3

`NC12CC3CC(CC(C3)C1)C2` [Amantadine Hydrochloride] was tested, and the “avg_tx (log2) CTSB” value (CTSB) was 7.75 log2, the “diff (log2) CTSB” value (CTSB) was −1.48 log2 and the “avg_tx (log2) ceroid-lipofuscinosis” value (ceroid-lipofuscinosis; probe 204085_s_at) was 5.93 log2. For the same compound, the “diff (log2) ceroid-lipofuscinosis” value (ceroid-lipofuscinosis; probe 204085_s_at) was −1.74 log2, the “avg_tx (log2) ceroid-lipofuscinosis” value (ceroid-lipofuscinosis; probe 214252_s_at) was 6.13 log2 and the “diff (log2) ceroid-lipofuscinosis” value (ceroid-lipofuscinosis; probe 214252_s_at) was −1.57 log2. The “avg_tx (log2) CD164” value (CD164) was 8.7 log2, the “diff (log2) CD164” value (CD164) was −1.34 log2 and the “avg_tx (log2) PSAP” value (PSAP) was 10.59 log2. The “diff (log2) PSAP” value (PSAP) was −1.36 log2, the “avg_tx (log2) CTSK” value (CTSK) was 7.09 log2 and the “diff (log2) CTSK” value (CTSK) was −1.81 log2. For the same compound, the “avg_tx (log2) GJA1” value (GJA1) was 11.23 log2 and the “diff (log2) GJA1” value (GJA1) was −1.76 log2.
